We go through 20 compounds from patent US9567338B2, “Pyrazolo[3,4-d]pyrimidine compounds, their preparation and use as sigma ligands” (LABORATORIOS DEL DR. ESTEVE S.A., priority 2011, dated 2017).

The target in this experiment is σ1-receptor (Cavia porcellus (Guinea pig), UniProt Q60492). As to the kind of experiment: σ1-receptor binding assay, [3H]-(+)-pentazocine displacement in brain membranes. Particulars: radioligand [3H]-(+)-pentazocine 5.0 nM; for % Displacement (10^−6 M): compound at 10^−6 M. The protocol: Guinea pig brains were homogenized in 10 vols. (w/v) of Tris-HCl 50 mM 0.32 M sucrose, pH 7.4, with a Kinematica Polytron PT 3000 at 15000 r.p.m. for 30 s. The homogenate was centrifuged at 1000 g for 10 min at 4° C. and the supernatants collected and centrifuged again at 48000 g for 15 min at 4° C. The pellet was resuspended in 10 volumes of Tris-HCl buffer (50 mM, pH 7.4), incubated at 37° C. for 30 min, and centrifuged at 48000 g for 20 min at 4° C. Following this, the pellet was resuspended in fresh Tris-HCl buffer (50 mM, pH 7.4) and stored on ice until use.
Sequence of σ1-receptor (Q60492 whole entry): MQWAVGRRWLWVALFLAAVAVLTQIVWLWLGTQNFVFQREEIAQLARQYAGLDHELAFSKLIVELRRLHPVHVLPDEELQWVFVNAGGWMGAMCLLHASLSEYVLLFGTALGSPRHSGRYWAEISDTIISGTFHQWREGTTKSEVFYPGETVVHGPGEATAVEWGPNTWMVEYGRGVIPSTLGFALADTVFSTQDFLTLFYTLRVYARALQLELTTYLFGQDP
The radioligand used was [^3H]-(+)-pentazocine at 5.0 nM and the final volume was 200 μl. The incubation was initiated with the addition of 100 μA of membrane at a final tissue concentration of approximately 5 mg tissue net weight/mL and the incubation time was 150 m. at 37° C. After incubation, the membranes were collected onto pretreated glass fiber filterplate (MultiScreen-FC, Millipore), with polyethylenimine 0.1%. The filters were washed two times with 200 μA of washing buffer (50 mM Tris CI, pH=7.4) and then 25 μl of Ecoscint H liquid scintillation cocktail were added. […] Nonspecific binding was determined with 1 μM haloperidol.

In the case of `Cl.O=C(Nc1ncnc2c1cnn2CCN1CCCCC1)C1CCCCC1` [Example 6, N-(1-(2-(Piperidin-1-yl)ethyl)-1H-pyrazolo[3,4-d]pyrimidin-4-yl)cyclohexanecarboxamide hydrochloride], the “% Displacement (10^−6 M)” value was determined as 78.6% and the affinity corresponds to a Ki of 73.1 nM.
With `CC(C)(C)c1cc(C(=O)Nc2ncnc3c2cnn3CCN2CCCCC2)cc(C(C)(C)C)c1.Cl` [Example 9, 3,5-di-tert-Butyl-N-(1-(2-(piperidin-1-yl)ethyl)-1H-pyrazolo[3,4-d]pyrimidin-4-yl)benzamide hydrochloride], the “% Displacement (10^−6 M)” value is 49.50% and the affinity corresponds to a Ki of 700 nM.
For `CC(C)N(CCn1ncc2c(NC(=O)C3CCCCC3)ncnc21)C(C)C.O=C(O)/C=C\C(=O)O` [Example 16, N-(1-(2-(Diisopropylamino)ethyl)-1H-pyrazolo[3,4-d]pyrimidin-4-yl)cyclohexanecarboxamide maleate] the same measures were 68.2% and 244 nM.
The like results for `CC(C)N(CCn1ncc2c(NC(=O)C34CC5CC(CC(C5)C3)C4)ncnc21)C(C)C.O=C(O)/C=C\C(=O)O` [Example 18, N-(1-(2-(Diisopropylamino)ethyl)-1H-pyrazolo[3,4-d]pyrimidin-4-yl)-1-adamantylcarboxamide maleate] were, in that order, 90.2% and 56.7 nM.
For `CC(C)N(CCn1ncc2c(NC(=O)C34C5CC6CC3CC64C5)ncnc21)C(C)C.Cl` [Example 21, N-(1-(2-(Diisopropylamino)ethyl)-1H-pyrazolo[3,4-d]pyrimidin-4-yl)-1-noradamantylcarboxamide hydrochloride], the “% Displacement (10^−6 M)” value turned out to be 90.8%; the inhibition constant (Ki) (usually the dissociation constant of the complex between target and ligand, obtained from inhibition or displacement) worked out at 55 nM.
For `Cl.O=C(Nc1ncnc2c1cnn2CCN1CCCCCC1)C12C3CC4CC1CC42C3` [Example 22, N-(1-(2-(Azepan-1-yl)ethyl)-1H-pyrazolo[3,4-d]pyrimidin-4-yl) 1-noradamantylcarboxamide hydrochloride] the same measures were 97.2% and 15 nM.
Consider `CC(C)N(CCn1ncc2c(NC(=O)C3CCCC3)ncnc21)C(C)C.O=C(O)/C=C\C(=O)O` [Example 28, N-(1-(2-(Diisopropylamino)ethyl)-1H-pyrazolo[3,4-d]pyrimidin-4-yl)cyclopentanecarboxamide maleate], for which the “% Displacement (10^−6 M)” value stood at 54.0% and the inhibition constant (Ki) was 631 nM.
The like results for `CC(C)N1CCN(CCn2ncc3c(NC(=O)C45CC6CC(CC(C6)C4)C5)ncnc32)CC1.O=C(O)/C=C\C(=O)O` [Example 31, N-(1-(2-(4-isopropylpiperazin-1-yl)ethyl)-1H-pyrazolo[3,4-d]pyrimidin-4-yl) 1-adamantylcarboxamide maleate] were, in that order, 76.8% and 573 nM.
In the case of `CC(C)N1CCN(CCn2ncc3c(NC(=O)C4CCCC4)ncnc32)CC1.O=C(O)/C=C\C(=O)O` [Example 32, N-(1-(2-(4-isopropylpiperazin-1-yl)ethyl)-1H-pyrazolo[3,4-d]pyrimidin-4-yl)cyclopentanecarboxamide maleate], the “% Displacement (10^−6 M)” value is given as 63.3%. This compound gave a Ki (maleate) of 683 nM.
`CCCNC(=O)Nc1ncnc2c1cnn2CCN1CCCOCC1` [Example 44, 1-(1-(2-(1,4-oxazepan-4-yl)ethyl)-1H-pyrazolo[3,4-d]pyrimidin-4-yl)-3-propylurea] displayed a Ki of 252 nM.
`CC(C)N(CCn1ncc2c(NC(=O)NC(C)(C)C)ncnc21)C(C)C.Cl` [Example 61, 1-tert-Butyl-3-(1-(2-(diisopropylamino)ethyl)-1H-pyrazolo[3,4-d]pyrimidin-4-yl)urea hydrochloride]: the “% Displacement (10^−6 M)” value came to 25.9% and the inhibition constant (Ki) stood at 805 nM.
For `O=C(Nc1ccc(Cl)cc1Cl)Nc1ncnc2c1cnn2CCN1CCCCCC1.O=C(O)CC(O)(CC(=O)O)C(=O)O` [Example 64, 1-(1-(2-(azepan-1-yl)ethyl)-1H-pyrazolo[3,4-d]pyrimidin-4-yl)-3-(2,4-dichlorophenyl)urea citrate] the same measures were 91.4% and 108 nM.
The like results for `CC(C)(C)CC(C)(C)NC(=O)Nc1ncnc2c1cnn2CCN1CCCCCC1.O=C(O)/C=C\C(=O)O` [Example 65, 1-(1-(2-(azepan-1-yl)ethyl)-1H-pyrazolo[3,4-d]pyrimidin-4-yl)-3-(2,4,4-trimethylpentan-2-yl)urea maleate] were, in that order, 96.8% and 27.9 nM.
As to `CCCNC(=O)Nc1ncnc2c1cnn2CCCN1CCCCCC1` [Example 73, 1-(1-(3-(azepan-1-yl)propyl)-1H-pyrazolo[3,4-d]pyrimidin-4-yl)-3-propylurea], the affinity corresponds to a Ki of 102 nM.
Still for that read-out and setting: the figure for `CCCNC(=O)Nc1ncnc2c1cnn2CCN1CCC(C(C)(C)C)CC1` [Example 74, 1-(1-(2-(4-tert-butylpiperidin-1-yl)ethyl)-1H-pyrazolo[3,4-d]pyrimidin-4-yl)-3-propylurea] is 212 nM.
`CNC(=S)Nc1ncnc2c1cnn2CCN1CCCCCC1.O=C(O)/C=C\C(=O)O` [Example 76, 1-(1-(2-(azepan-1-yl)ethyl)-1H-pyrazolo[3,4-d]pyrimidin-4-yl)-3-methylthiourea maleate]: the “% Displacement (10^−6 M)” value is 96.8% and the affinity, expressed as Ki, was 14.9 nM.
Take `CN1CCN(CCCn2ncc3c(NC(=O)C(C)(C)C)ncnc32)CC1` [Example 86, N-(1-(3-(4-methylpiperazin-1-yl)propyl)-1H-pyrazolo[3,4-d]pyrimidin-4-yl)pivalamide]: affinity was put at a Ki of 329 nM.
On the same count and under the same terms, the same measure for `CCCNC(=O)Nc1ncnc2c1cnn2CCCCN1CCC(C(C)(C)C)CC1` [Example 93, 1-(1-(4-(4-tert-butylpiperidin-1-yl)butyl)-1H-pyrazolo[3,4-d]pyrimidin-4-yl)-3-propylurea]: 280 nM; for `CC(=O)N(C)c1ncnc2c1cnn2CCN1CCCCCC1` [Example 101, N-(1-(2-(azepan-1-yl)ethyl)-1H-pyrazolo[3,4-d]pyrimidin-4-yl)-N-methylacetamide]: 221 nM.
On the same count and under the same terms, the figure for `Cc1ccc(C)n1-c1ncnc2c1cnn2CCN1CCCCC1` [Example 105, 4-(2,5-dimethyl-1H-pyrrol-1-yl)-1-(2-(piperidin-1-yl)ethyl)-1H-pyrazolo[3,4-d]pyrimidine] is 740 nM.
